Entries after “also recorded” stand apart in the source; their conditions may differ.
Legend:
[1] = biological target: T1, asc-1 of mouse (co-expressed with 4F2hc of mouse) (Mus musculus, UniProt P63115); experiment: Release of preloaded 14C-alanine from oocytes co-expressing asc-1 and 4F2hc on extracellular addition of compound; format: cell-based; conditions: for increase in the release of preloaded 14C-alanine: 100 μM compound added to Na+-free uptake solution, room temperature
T1 construct: expressed in transfected cells; host or cells: Xenopus oocytes injected with cRNA
T1 sequence (P63115 1-530): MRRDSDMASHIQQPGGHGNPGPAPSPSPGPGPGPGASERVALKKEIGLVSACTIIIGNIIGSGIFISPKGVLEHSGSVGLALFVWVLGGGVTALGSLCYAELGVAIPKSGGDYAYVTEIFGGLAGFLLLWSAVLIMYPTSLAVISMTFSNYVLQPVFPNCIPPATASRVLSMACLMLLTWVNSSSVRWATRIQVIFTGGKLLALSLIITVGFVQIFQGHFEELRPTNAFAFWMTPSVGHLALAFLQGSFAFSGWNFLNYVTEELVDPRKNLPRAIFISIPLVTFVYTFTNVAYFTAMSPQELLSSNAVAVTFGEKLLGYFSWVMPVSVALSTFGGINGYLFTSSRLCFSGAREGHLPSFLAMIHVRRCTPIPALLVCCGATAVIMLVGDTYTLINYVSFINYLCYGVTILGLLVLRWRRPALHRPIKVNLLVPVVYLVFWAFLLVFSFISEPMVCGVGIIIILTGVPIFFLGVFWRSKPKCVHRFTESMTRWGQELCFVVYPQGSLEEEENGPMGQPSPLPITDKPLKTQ
T1 sequence (P10852 1-526 partner): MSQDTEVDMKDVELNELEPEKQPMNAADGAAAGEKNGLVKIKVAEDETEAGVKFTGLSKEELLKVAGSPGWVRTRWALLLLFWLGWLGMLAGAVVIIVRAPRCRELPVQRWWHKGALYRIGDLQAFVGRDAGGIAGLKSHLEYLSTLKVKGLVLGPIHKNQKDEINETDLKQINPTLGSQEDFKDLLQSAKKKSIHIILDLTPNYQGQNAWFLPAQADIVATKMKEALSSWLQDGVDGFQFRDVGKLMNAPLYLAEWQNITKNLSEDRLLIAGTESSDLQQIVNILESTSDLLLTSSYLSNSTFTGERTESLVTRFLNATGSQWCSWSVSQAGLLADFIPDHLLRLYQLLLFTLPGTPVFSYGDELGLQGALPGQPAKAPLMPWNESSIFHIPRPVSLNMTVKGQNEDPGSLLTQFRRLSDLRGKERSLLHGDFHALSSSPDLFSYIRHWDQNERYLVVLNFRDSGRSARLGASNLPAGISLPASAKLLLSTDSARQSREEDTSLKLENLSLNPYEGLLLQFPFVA
Description: (§1) Release of a preloaded ^14C-alanine mediated by asc-1 was checked in the oocytes into which both asc-1 gene cRNA and 4F2hc gene cRNA of mouse were injected together. ^14C-Alanine (−3nCi) of 100 μM in an amount of 100 nl was injected into the oocytes into which both asc-1 gene cRNA and 4F2hc gene cRNA of mouse were injected together, washed with an ice-cooled Na^+-free uptake solution containing no alanine and transferred to a Na^+-free uptake solution to which alanine (100 μM) was added or not added at room temperature (18° C.-22° C.) and the amount of ^14C-alanine released outside the cells was measured.
In oocytes into which cRNA of asc-1 gene and cRNA of 4F2hc gene of mouse were injected together, release of preloaded ^14C-alanine mediated by asc-1 was investigated whereupon it was checked whether the compound which inhibited the incorporation of ^14C-alanine mediated by asc-1 was a substrate of asc-1.
as §1, with “^14C-Alanine” for “Release of a preloaded ^14C-alanine mediated by asc-1 was checked in the oocytes into which both asc-1 gene cRNA and 4F2hc gene cRNA of mouse were injected together. ^14C-Alanine”, “which amino acid or amino acid analog” for “which alanine”
Black bars in FIG. 18 are the case where there were used oocytes into which cRNA of mouse asc-1 gene and cRNA of mouse 4F2hc gene were injected while white bars are the case where there were used oocytes into which water was injected instead of cRNA as a control.

[2] = biological target: T1, asc-1 of mouse (co-expressed with 4F2hc of mouse); experiment: Incorporation of radiolabeled amino acids and analogs by oocytes co-expressing asc-1 and 4F2hc; format: cell-based; conditions: for incorporation into the oocytes as substrate: radiolabeled substrate, oocytes expressing both asc-1 and 4F2hc, Na+-free uptake solution; for transport by asc-1 (affinity in words): summary statement, asc-1 co-existing with 4F2hc
Description: Incorporation of alanine when asc-1 gene cRNA of mouse was solely expressed in oocytes of Xenopus and when asc-1 gene cRNA of mouse and 4F2hc gene cRNA of mouse were expressed in oocytes of Xenopus together was compared.
Into oocytes were injected 12 ng of asc-1 gene cRNA of mouse, 13 ng of 4F2hc gene cRNA of mouse or 12 ng asc-1 gene cRNA of mouse/13 ng of 4F2hc gene cRNA of mouse to express followed by incubating for 3 days. […] Thus, the oocytes were allowed to stand for 30 minutes in a Na^+-free uptake solution [100 mM choline chloride, 2 mM potassium chloride, 1.8 mM calcium chloride, 1 mM magnesium chloride, 5 mM HEPES; pH 7.4] containing ^14C-alanine (100 μM) as a substrate and the rate of the substrate incorporated into the cells was measured by way of counting the radioactivity incorporated thereinto.
In an experiment of incorporation of alanine by oocytes into which both asc-1 gene cRNA and 4F2hc gene cRNA of mouse were injected together, influence of the salt added to the medium was investigated.
The experiment of incorporation of alanine was carried out in accordance with the method mentioned in the above Example 2(1) using oocytes into which both asc-1 gene cRNA and 4F2hc gene cRNA of mouse were injected together. When the influence of sodium ion was checked however, a standard uptake solution (where 100 mM choline chloride was substituted with 100 mM sodium chloride) was used in place of the Na^+-free uptake solution as the uptake solution. When the influence of chlorine ion was checked, a gluconic acid uptake solution (where 100 mM sodium chloride was substituted with 100 mM sodium gluconate) was used in place of the standard uptake solution.
Incorporation by asc-1 was investigated using various amino acids and analogs thereof as substrates. Experiment for incorporation of various amino acids and analogs thereof was carried out according to the method mentioned in the above Example 2(1) using oocytes into which asc-1 gene cRNA of mouse and 4F2hc gene cRNA of mouse were injected together. With regard to the substrates however, various compounds labeled with radioactivity were used in place of ^14C-alanine.
Influence of pH was checked in an experiment for incorporation of alanine by oocytes into which both asc-1 gene cRNA and 4F2hc gene cRNA of mouse were injected together. With regard to an experiment for incorporation of alanine, the method according to that mentioned in the above Example 2 (1) was carried out using oocytes into which both asc-1 gene cRNA of mouse and 4F2hc gene cRNA of mouse were injected together.

Row | SMILES | increase in the release of preloaded 14C-alanine [1] | incorporation into the oocytes as substrate [2] | transport by asc-1 (affinity in words) [2] | release of 14C-alanine without alanine outside the cells ([1]; alanine not added to Na+-free uptake solution) | influence of pH on incorporation of alanine [2] | influence of salt on incorporation of alanine ([2]; choline changed to sodium, chlorine ion changed to gluconic acid ion)
1 | N[C@@H](CO)C(=O)O [L-Serine] | high increase | big incorporation | highly affinitive | – | – | –
2 | C[C@H](N)C(=O)O [L-Alanine] | significantly increased; also recorded: high increase | big incorporation | highly affinitive | significant release | no significant dependency on pH | does no affect
